This passage reports IC50 results from patent US20180118718A1, “Substituted Quinoxaline Derivatives” (Selvita S.A., priority 2015, published 2018).

Structures can show the parent of a compound that is named as a salt.

The target in the experiment is T1, Human recombinant His-tagged PFKFB3 (Homo sapiens, UniProt Q16875).
T1 construct: His; made in house
T1 sequence (Q16875 whole entry): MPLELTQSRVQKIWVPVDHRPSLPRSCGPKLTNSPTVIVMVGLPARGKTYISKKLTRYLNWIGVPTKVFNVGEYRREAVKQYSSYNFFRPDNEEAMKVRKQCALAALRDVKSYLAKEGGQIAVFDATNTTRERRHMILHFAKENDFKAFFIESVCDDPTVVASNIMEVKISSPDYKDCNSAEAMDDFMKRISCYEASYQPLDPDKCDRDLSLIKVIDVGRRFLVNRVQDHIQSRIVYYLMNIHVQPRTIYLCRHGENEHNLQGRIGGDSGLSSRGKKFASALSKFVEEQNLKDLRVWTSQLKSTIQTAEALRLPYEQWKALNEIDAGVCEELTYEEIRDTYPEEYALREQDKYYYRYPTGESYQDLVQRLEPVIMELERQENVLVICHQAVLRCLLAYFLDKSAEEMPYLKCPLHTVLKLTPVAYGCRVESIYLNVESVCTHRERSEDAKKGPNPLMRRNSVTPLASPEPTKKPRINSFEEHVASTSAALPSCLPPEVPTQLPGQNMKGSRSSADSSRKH
The experiment is described as follows: PFKFB3 IC50 Determination Assay (in vitro kinase assay, modified ADP-Glo system). The experiment is classed as biochemical. Particulars: ATP 20 μM and fructose-6-phosphate 2 μM (Km), 25 nM PFKFB3, 2 h, rt, ADP-Glo luminescence. As for the experimental part:
PFKFB3 IC50 Determination Assay
In vitro kinase assay used to determine IC50 values for tested inhibitors is based on a modified ADP-Glo™ system (Promega) and consists of two parts:
1. Kinase reaction—performed in optimized conditions. At this step PFKFB3 phosphorylates its substrate Fructose-6-phosphate using ATP as a source of phosphate to produce Fructose-2,6-bisphosphate and ADP. Reaction is performed at Km values for ATP and substrate using optimized buffer composition and time of the reaction. Human recombinant His-tagged PFKFB3 (PFKFB3 BATCH II SEC) with confirmed activity is produced and purified in-house. 2. Detection of ADP as a product of the reaction using ADP-Glo™ system. This part is conducted by using the commercially available kit ADP-Glo™ Kinase Assay (Promega, cat. No# V9103) according to manufacturer's instruction, modified by 5x dilutions of assay reagents (both ADP-Glo™ Reagent and Kinase Detection Solution).
Test compounds are dissolved in DMSO and then transferred to the V-bottom 96-well plate.
15 μL per well of Mix 1 is transferred to assay wells of 96-well white plate. […] Total reaction volume is 30 μL per well. Samples are tested in duplicates. Final concentration of DMSO in the reaction is 6.7%. Conditions needed for performing PFKFB3 (PFKFB3 BATCH II SEC) in vitro kinase assay are given below:
This protocol is based on Technical Bulletin, ADP-Glo™ Kinase Assay (Promega) and is adapted to 96-well plate containing 30 μL reaction mixture:
30 μL of 5x diluted ADP-Glo™ Reagent is added to each well of 96-well plate containing 30 μL of reaction mixture. The plate is incubated for 90 minutes on a shaker at RT. 60 μL of 5x diluted Kinase Detection Solution is added to each well of 96-well plate containing 60 μL of the solution (ratio of kinase reaction volume to ADP-Glo™ Reagent volume to Kinase Detection Solution volume is maintained at 1:1:2). Plate is incubated for 40 minutes on a shaker at RT, protected from light. Luminescence is measured in the plate reader Synergy 2 (BioTek).
Luminescent readouts for compounds tested in 10 concentrations (routinely from 100 μM to […], […] serial dilutions) in duplicates, as well as for positive control, are first normalized to no-substrate negative control by its subtraction. In the next step, % of normalized positive control is calculated for each data point and plotted against test compound concentration:
% of control percent of positive control normalized to no-substrate negative control Lumcpd luminescence of test compound Lumneg luminescence of no-substrate negative control Lumpos luminescence of positive control
IC50 parameter is determined by the GraphPad Prism 5.0 software [log(inhibitor) vs. response −Variable slope (four parameters)].
In the case of `Cn1ccc2ccc(-c3cc(N4CCc5ccncc54)cc4nccnc34)cc21` [Example 2, 5-(1-Methyl-1H-indol-6-yl)-7-{1H,2H,3H-pyrrolo[2,3-c]pyridin-1-yl}quinoxaline], the IC50 fell in the range of 1 to 1000 nM. To `COc1ccc(Cl)c(-c2cc(Nc3cnccc3S(C)(=O)=O)cc3nccnc23)c1` [Example 5, 8-(2-Chloro-5-methoxyphenyl)-N-(4-methanesulfonylpyridin-3-yl)quinoxalin-6-amine] belongs 1000 to 10000 nM; to `Cn1ccc2ccc(-c3cc(Nc4cccnc4S(C)(=O)=O)cc4nccnc34)cc21` [Example 6, N-(2-Methanesulfonylpyridin-3-yl)-8-(1-methyl-1H-indol-6-yl)quinoxalin-6-amine], 1 to 1000 nM. With `Cn1ccc2ccc(-c3cc(Nc4cc(Br)ccc4S(C)(=O)=O)cc4nccnc34)cc21` [Example 10, N-(5-Bromo-2-methanesulfonylphenyl)-8-(1-methyl-1H-indol-6-yl)quinoxalin-6-amine], the IC50 lay in the range of 1 to 1000 nM. As for `Cn1ccc2ccc(-c3cc(Nc4ccc[nH]c4=O)cc4nccnc34)cc21` [Example 14, 3-{[8-(1-Methyl-1H-indol-6-yl)quinoxalin-6-yl]amino}pyridin-2-ol], the figure is 1 to 1000 nM; as for `Cn1ccc2ccc(-c3cc(Nc4ccccc4S(=O)(=O)N4CCNCC4)cc4nccnc34)cc21` [Example 15, 8-(1-Methyl-1H-indol-6-yl)-N-[2-(piperazine-1-sulfonyl)phenyl]quinoxalin-6-amine trifluoroacetate], 1000 to 10000 nM; as for `Cn1ccc2ccc(-c3cc(Nc4cccnc4N)cc4nccnc34)cc21` [Example 17, 3-N-[8-(1-methyl-1H-indol-6-yl)quinoxalin-6-yl]pyridine-2,3-diamine], 1000 to 10000 nM.

`Cn1ccc2ccc(-c3cc(Nc4ccccc4S(C)(=O)=O)cc4nccnc34)nc21` [Example 21, N-(2-Methanesulfonylphenyl)-8-{1-methyl-1H-pyrrolo[2,3-b]pyridin-6-yl}quinoxalin-6-amine trifluoroacetate]: the IC50 was in the range of 1 to 1000 nM. To `Cc1coc2ccc(-c3cc(Nc4cnccc4C#N)cc4nccnc34)cc12` [Example 24, 3-{[8-(3-methyl-1-benzofuran-5-yl)quinoxalin-6-yl]amino}pyridine-4-carbonitrile] belongs 1 to 1000 nM. As for `Cn1ccc2ccc(-c3cc(Nc4cc(C#N)ccc4S(C)(=O)=O)cc4nccnc34)cc21` [Example 25, 4-Methanesulfonyl-3-{[8-(1-methyl-1H-indol-6-yl)quinoxalin-6-yl]amino}benzonitrile], the figure is 1 to 1000 nM; as for `Cc1coc2ccc(-c3cc(Nc4cnccc4C(N)=O)cc4nccnc34)cc12` [Example 26, 3-{[8-(3-Methyl-1-benzofuran-5-yl)quinoxalin-6-yl]amino}pyridine-4-carboxamide], 1 to 1000 nM; as for `Cn1ccc2ccc(-c3cc(Nc4ncncc4S(C)(=O)=O)cc4nccnc34)cc21` [Example 27, N-(5-Methanesulfonylpyrimidin-4-yl)-8-(1-methyl-1H-indol-6-yl)quinoxalin-6-amine], 1000 to 10000 nM. Regarding `Cn1ccc2cc(-c3cc(Nc4cnccc4C#N)cc4nccnc34)ccc21` [Example 28, 3-{[8-(1-Methyl-1H-indol-5-yl)quinoxalin-6-yl]amino}pyridine-4-carbonitrile], the half-maximal inhibitory concentration (IC50) was in the range of 10000 to 100000 nM. `Cn1ccc2cc(-c3cc(Nc4cnccc4C(N)=O)cc4nccnc34)ccc21` [Example 29, 3-{[8-(1-Methyl-1H-indol-5-yl)quinoxalin-6-yl]amino}pyridine-4-carboxamide]: the half-maximal inhibitory concentration (IC50) fell in the range of 1000 to 10000 nM. As for `Cn1ccc2cc(-c3cc(Nc4cnccc4Cl)cc4nccnc34)ccc21` [Example 30, N-(4-Chloropyridin-3-yl)-8-(1-methyl-1H-indol-5-yl)quinoxalin-6-amine], the figure is 10000 to 100000 nM; as for `Cn1cc(-c2ccncc2Nc2cc(-c3ccc4c(ccn4C)c3)c3nccnc3c2)cn1` [Example 31, 8-(1-Methyl-1H-indol-5-yl)-N-[4-(1-methyl-1H-pyrazol-4-yl)pyridin-3-yl]quinoxalin-6-amine], 10000 to 100000 nM. To `CN1CCN(c2ccncc2Nc2cc(-c3ccc4c(ccn4C)c3)c3nccnc3c2)CC1` [Example 32, 8-(1-Methyl-1H-indol-5-yl)-N-[4-(4-methylpiperazin-1-yl)pyridin-3-yl]quinoxalin-6-amine] belongs 1000 to 10000 nM; to `Cn1ccc2cc(-c3cc(Nc4cnccc4-c4cncnc4)cc4nccnc34)ccc21` [Example 33, 8-(1-Methyl-1H-indol-5-yl)-N-[4-(pyrimidin-5-yl)pyridin-3-yl]quinoxalin-6-amine], 10000 to 100000 nM; to `Cn1ccc2cc(-c3cc(N4CCc5ccncc54)cc4nccnc34)ccc21` [Example 34, 5-(1-Methyl-1H-indol-5-yl)-7-{1H,2H,3H-pyrrolo[2,3-c]pyridin-1-yl}quinoxaline], 10000 to 100000 nM.

`Cn1ccc2ccc(-c3cc(Nc4cc([N+](=O)[O-])ccc4S(C)(=O)=O)cc4nccnc34)cc21` [Example 35, N-(2-Methanesulfonyl-5-nitrophenyl)-8-(1-methylindol-6-yl)quinoxalin-6-amine]: the IC50 is 1 to 1000 nM.

`Cn1ccc2ccc(-c3cc(Nc4cc(N)ccc4S(C)(=O)=O)cc4nccnc34)cc21` [Example 36, 6-Methanesulfonyl-N1-[8-(1-methyl-1H-indol-6-yl)quinoxalin-6-yl]benzene-1,3-diamine]: the 50% inhibitory concentration (IC50) lay in the range of 1 to 1000 nM. As for `Cn1ccc2cc(-c3cc(Nc4cc(CN)ccc4S(C)(=O)=O)cc4nccnc34)ccc21` [Example 38, N-[5-(Aminomethyl)-2-methanesulfonylphenyl]-8-(1-methyl-1H-indol-5-yl)quinoxalin-6-amine], the figure is 10000 to 100000 nM; as for `Cc1ccc(C)c(-c2cc(Nc3cnccc3S(C)(=O)=O)cc3nccnc23)c1` [Example 39, 8-(2,5-Dimethylphenyl)-N-(4-methanesulfonylpyridin-3-yl)quinoxalin-6-amine], 1 to 1000 nM; as for `CN1CCN(c2ccncc2Nc2cc(-c3ccc4ccn(C)c4c3)c3nccnc3c2)CC1` [Example 40, 8-(1-Methyl-1H-indol-6-yl)-N-[4-(4-methylpiperazin-1-yl)pyridin-3-yl]quinoxalin-6-amine], 1 to 1000 nM. As for `CC(=O)Nc1ccc(S(C)(=O)=O)c(Nc2cc(-c3ccc4ccn(C)c4c3)c3nccnc3c2)c1` [Example 41, N-(4-Methanesulfonyl-3-{[8-(1-methyl-1H-indol-6-yl)quinoxalin-6-yl]amino}phenyl)acetamide], the figure is 1000 to 10000 nM; as for `Cn1ccc2ccc(-c3cc(Nc4cc(-n5ccnc5)ccc4S(C)(=O)=O)cc4nccnc34)cc21` [Example 42, N-[5-(1H-Imidazol-1-yl)-2-methanesulfonylphenyl]-8-(1-methyl-1H-indol-6-yl)quinoxalin-6-amine], 1 to 1000 nM. Take `Cn1ccc2ccc(-c3cc(Nc4cc(-c5nn[nH]n5)ccc4S(C)(=O)=O)cc4nccnc34)cc21` [Example 43, N-[2-Methanesulfonyl-5-(2H-1,2,3,4-tetrazol-5-yl)phenyl]-8-(1-methyl-1H-indol-6-yl)quinoxalin-6-amine]: the concentration for half-maximal inhibition (IC50) fell in the range of 1 to 1000 nM. As to `Cn1ccc2ccc(-c3cc(Nc4c[n+]([O-])ccc4S(C)(=O)=O)cc4nccnc34)cc21` [Example 44, 4-Methanesulfonyl-3-{[8-(1-methyl-1H-indol-6-yl)quinoxalin-6-yl]amino}pyridin-1-ium-1-olate], the half-inhibitory concentration (IC50) was 1 to 1000 nM.

On to `CN1CCN(c2ccc(S(C)(=O)=O)c(Nc3cc(-c4ccc5ccn(C)c5c4)c4nccnc4c3)c2)CC1` [Example 45, N-[2-Methanesulfonyl-5-(4-methylpiperazin-1-yl)phenyl]-8-(1-methyl-1H-indol-6-yl)quinoxalin-6-amine], for which the IC50 lay within 1000 to 10000 nM. For `CC(=O)N1CCN(c2ccc(S(C)(=O)=O)c(Nc3cc(-c4ccc5ccn(C)c5c4)c4nccnc4c3)c2)CC1` [Example 46, 1-[4-(4-Methanesulfonyl-3-{[8-(1-methyl-1H-indol-6-yl)quinoxalin-6-yl]amino}phenyl)piperazin-1-yl]ethan-1-one], the concentration for half-maximal inhibition (IC50) lay in the range of 1000 to 10000 nM. As for `Cn1ccc2ccc(-c3cc(Oc4cnccc4C#N)cc4nccnc34)cc21` [Example 47, 3-{[8-(1-Methyl-1H-indol-6-yl)quinoxalin-6-yl]oxy}pyridine-4-carbonitrile], the figure is 1 to 1000 nM.
